In patent publication US11827628B2, “Compositions and methods for inhibition of the JAK pathway” (Rigel Pharmaceuticals, Inc., priority 2005, dated 2023):
Where two headings read alike, the source gives them in different places. Values belong to the molecule of their own block, whether it stands above or below them.

How the values were obtained:
Assay type in all cases: cell-based
[1] = test system: IL-4 stimulated expression of CD23 in human Ramos B cells (JAK-1 and JAK-3); test: Assay for Ramos B-Cell Line Stimulated with IL-4 (CD23 upregulation, FACS); conditions: read-out: IC50, Example 41
Method in brief: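 Human Ramos B cells (5×10^4 per point, RPMI 5% serum) pre-incubated 1 h at 37 °C with compound or DMSO, then stimulated with IL-4 at 50 units/mL final for 20-24 h. CD23 upregulation measured by anti-CD23-PE staining and flow cytometry; IC50 derived.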

[2] = test system: up-regulation of ICAM-1 (CD54) by IFNγ in U937 human monocytic cells; test: U937 IFNγ ICAM1 FACS Assay; conditions: Homo sapiens, U-937, U937 cells stimulated with IFNγ, ICAM-1 expression by FACS; read-out: IC50, Example 44
Excerpt: The activity of the compounds of the invention may additionally be characterized by assaying the effect of the 2,4-substituted pyrimidinediamine compounds described herein on A549 lung epithelial cells and U937 cells. A549 lung epithelial cells and U937 cells up-regulate ICAM-1 (CD54) surface expression in response to a variety of different stimuli. Therefore, using ICAM-1 expression as readout, test compound effects on different signaling pathways can be assessed in the same cell type. Stimulation with IL-1β through the IL-1β receptor activates the TRAF6/NFκB pathway resulting in up-regulation of ICAM-1. IFNγ induces ICAM-1 up-regulation through activation of the JAK1/JAK2 pathway. The up-regulation of ICAM-1 can be quantified by flow cytometry across a compound dose curve and EC50, values are calculated.
U937 human monocytic cells up-regulate ICAM-1 (CD54) surface expression in response to a variety of different stimuli. Therefore, using ICAM-1 expression as readout, compound effects on different signaling pathways can be assessed in the same cell type. IFNγ up-regulates ICAM-1 through activation of the JAK/Stat pathway. In this example, the up-regulation of ICAM-1 by IFNγ was assessed.
The U937 human monocytic cell line was obtained from ATCC of Rockville Maryland, catalog number CRL-1593.2, and cultured in RPM1-1640 medium containing 10% (v/v) FCS. U937 cells were grown in 10% RPMI. The cells were then plated at a concentration of 100,000 cells per 160 μL in 96 well flat bottom plates. […] Then 4 μL of test compound was transferred to 76 μL of 10% RPMI resulting in a 10× solution (100 μM test compound, 5% DMSO). For control wells, 4 μL of DMSO was diluted into 76 μL 10% RPMI.
The assay was performed in duplicate with 8 points (8 3-fold dilution concentrations from […]) and with 4 wells of DMSO only (control wells) under stimulated conditions and 4 wells of DMSO only under unstimulated conditions.
The diluted compound plate was mixed 2× using a multimek (Beckman Coulter of Brea, California) and then 20 μL of the diluted compounds was transferred to the 96 well plate containing 160 μL of cells, which were then mixed again twice at low speeds. The cells and compounds were then pre-incubated for 30 minutes at 37° C. with 5% CO2.
The 10× stimulation mix was made by preparing a 100 ng/mL solution of human IFNγ in 10% RPMI. […] The cells were kept under conditions for stimulation for 18-24 hours at 37° C. with 5% CO2.
The cells were transferred to a 96 well round bottom plate for staining and then kept on ice for the duration of the staining procedure. Cells were spun down at 1000 rpm for 5 minutes at 4° C., following which the supernatant was removed. Following removal of the supernatant, 1 μL APC conjugated mouse anti-human ICAM-1 antibody was added per 100 μL FACS buffer. The cells were then incubated on ice in the dark for 30 minutes. Following incubation, […] of FACS buffer was added and the cells were centrifuged at 1000 rpm for 5 minutes at 4° C., following which the supernatant was removed. After removal of the supernatant, 200 μL of FACS buffer was added and the cells were resuspended. After suspension, the cells were centrifuged at 1000 rpm for 5 min at 4° C. Supernatant was then removed prior to resuspension of the cells in 150 μL FACS buffer.
Detection was performed using a BD LSR I System Flow Cytometer, purchased from BD Biosciences of San Jose, California The live cells were gated for live scatter and the geometric mean of ICAM-APC was measured (Becton-Dickinson CellQuest software version 3.3, Franklin Lakes, NJ). Both % live cells and ICAM-1 expression was analyzed. The assays for the test compounds were carried out in parallel with a control compound of known activity.

Primary human T-cells = test: Primary Human T-Cell Proliferation Assay Stimulated with IL-2 (CellTiter-Glo); conditions: read-out: IC50, Example 42
Method in brief: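 IC50 derived from CellTiter-Glo ATP signal after 72 hours of IL-2-driven proliferation at 37° C. Cells: primary human T-cells from blood, stimulated beforehand 3-4 days on anti-CD3/anti-CD28 with IL-2, then rested from IL-2 before compound exposure in duplicate; IL-2-free wells served as unstimulated control.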

[3] = Homo sapiens, Ramos, Ramos B-cell line stimulated with IL-4, CD23 expression by FACS
[4] = Homo sapiens, Ramos, Ramos B cells stimulated with IL-4, CD23 expression by FACS
[5] = Homo sapiens, T-cell, primary human T-cells stimulated with IL-2, proliferation
[6] = Ramos B-cell line stimulated with IL-4, CD23 expression by FACS
[7] = primary human T-cell proliferation stimulated with IL-2
[8] = Ramos B cells stimulated with IL-4, CD23 expression by FACS
[9] = primary human T-cells stimulated with IL-2, proliferation
[10] = Homo sapiens, T-cell, primary human T-cell proliferation stimulated with IL-2

IC50 [1, 3]: 277 nM | IC50 [2]: 7160 nM
SMILES: Cc1ccc(Nc2ncc(F)c(Nc3ccc(OCC#N)c(-c4ccn(CC#N)n4)c3)n2)cc1S(N)(=O)=O [Compound I-54, N2-(3-Aminosulfonyl-4-methylphenyl]-N4-[4-cyanomethoxy-3-(1-cyanomethylpyrazol-3-yl)phenyl]-5-fluoro-2,4-pyrimidinediamine]

IC50 [1, 3]: 236 nM | IC50 [2]: 12200 nM
SMILES: N#CCOc1ccc(Nc2nc(Nc3cccc(S(N)(=O)=O)c3)ncc2F)cc1-c1ccn(CC#N)n1 [Compound I-53, N2-(3-Aminosulfonylphenyl)-N4-[4-cyanomethoxy-3-(1-cyanomethylpyrazol-3-yl)phenyl]-5-fluoro-2,4-pyrimidinediamine]

IC50 [1, 4]: 89.2 nM
SMILES: COc1ccc(Nc2nc(Nc3ccc(Cl)c(S(N)(=O)=O)c3)ncc2F)cc1Cl [VI-2, N2-(3-Aminosulfonyl-4-chlorophenyl)-N4-(3-chloro-4-methoxyphenyl)-5-fluoro-2,4-pyrimidinediamine]
IC50 (Primary human T-cells; [5]): 3570 nM

IC50 [1, 6]: 274 nM
SMILES: CC(Oc1ccc(Nc2nc(Nc3ccc(S(N)(=O)=O)cc3)ncc2F)cc1)C(N)=O (racemic) [Compound I-116, Racemic N4-[4-(1-Aminocarbonyl)ethoxy]phenyl-N2-(4-aminosulfonyl)phenyl-5-fluoro-2,4-pyrimidinediamine]
IC50 (Primary human T-cells; [7]): 972 nM

IC50 [1, 4]: 135 nM
SMILES: Cc1ccc(Nc2ncc(F)c(Nc3cccc(S(=O)(=O)N(C)C)c3)n2)cc1S(N)(=O)=O [IV-10, N2-(3-Aminosulfonyl-4-methylphenyl)-5-fluoro-N4-[3-(N,N-dimethylaminosulfonyl)phenyl]-2,4-pyrimidinediamine]
IC50 (Primary human T-cells; [5]): 714 nM

IC50 [1, 8]: 144 nM
SMILES: Cc1ccc(Nc2ncc(F)c(Nc3ccc(OCC(F)(F)F)cc3)n2)cc1S(N)(=O)=O [VI-46, N2-(3-Aminosulfonyl-4-methylphenyl)-5-fluoro-N4-(4-trifluoromethylmethyleneoxyphenyl)-2,4-pyrimidinediamine]
IC50 (Primary human T-cells; [9]): 1260 nM

IC50 [1, 4]: 1380 nM
SMILES: Cc1ccc(Nc2ncc(F)c(Nc3ccc(C(=O)N4CCN(C)CC4)cc3)n2)cc1S(N)(=O)=O [IX-27, N2-(3-Aminosulfonyl-4-methylphenyl)-5-fluoro-N4-[4-(4-methylpiperazin-1-ylcarbonyl)phenyl]-2,4-pyrimidinediamine]
IC50 (Primary human T-cells; [5]): 7630 nM

IC50 [1, 8]: 1940 nM
SMILES: Cc1ccc(Nc2ncc(F)c(Nc3ccc(C(=O)N4CCN(S(C)(=O)=O)CC4)cc3)n2)cc1S(N)(=O)=O [IX-30, N2-(3-Aminosulfonyl-4-methylphenyl)-5-fluoro-N4-[4-(1-methanesulfonyl-4-piperizinyl)carbonylphenyl]-2,4-pyrimidinediamine]
IC50 (Primary human T-cells; [9]): 6800 nM

IC50 [1, 6]: 38.2 nM
SMILES: NS(=O)(=O)c1cccc(Nc2ncc(F)c(Nc3ccc(OCc4ccncc4)cc3)n2)c1 [Compound I-193, N2-(3-Aminosulfonylphenyl)-5-fluoro-N4-[4-(4-pyridinyl)methyleneoxyphenyl]-2,4-pyrimidinediamine]
IC50 (Primary human T-cells; [7]): 55.6 nM

IC50 [1, 4]: 259 nM
SMILES: Cc1cc(Nc2ncc(F)c(Nc3ccc(OC(F)(F)F)c(Cl)c3)n2)cc(S(N)(=O)=O)c1F [VI-16, N2-(3-Aminosulfonyl-4-fluoro-5-methylphenyl)-N4-(3-chloro-4-trifluoromethoxyphenyl)-5-fluoro-2,4-pyrimidinediamine]
IC50 (Primary human T-cells; [5]): 3910 nM

IC50 [1, 4]: 206 nM
SMILES: NS(=O)(=O)c1cc(Nc2ncc(F)c(Nc3ccc(Cl)c(Cl)c3)n2)ccc1Cl [VI-3, N2-(3-Aminosulfonyl-4-chlorophenyl)-N4-(3,4-dichlorophenyl)-5-fluoro-2,4-pyrimidinediamine]
IC50 (Primary human T-cells; [5]): 8790 nM

IC50 [1, 8]: 117 nM
SMILES: CNS(=O)(=O)c1cc(Nc2ncc(F)c(Nc3ccc(Cn4ccnn4)cc3)n2)ccc1C [III-98, 5-Fluoro-N2-[3-(N-methylaminosulfony)-4-methylphenyl]-N4-{4-[1-(1,2,3-thazolyl)methyl]phenyl}-2,4-pyrimidinediamine]
IC50 (Primary human T-cells; [9]): 457 nM

IC50 [1, 8]: 342 nM
SMILES: NS(=O)(=O)c1cc(Nc2ncc(F)c(Nc3ccc(C(F)(F)F)cc3)n2)ccc1Cl [VI-41, N2-(3-Aminosulfonyl-4-chlorophenyl)-5-fluoro-N4-(4-trifluorophenyl)-2,4-pyrimidinediamine]
IC50 (Primary human T-cells; [9]): 6240 nM

IC50 [1, 4]: 96.5 nM
SMILES: COC(=O)c1ccc(Nc2nc(Nc3ccc(S(N)(=O)=O)cc3)ncc2F)s1 [IX-49, N2-(4-Aminosulfonylphenyl)-5-fluoro-N4-(5-methoxycarbonyl-thiophene-2-yl)-2,4-pyrimidinediamine]
IC50 (Primary human T-cells; [5]): 61900 nM

IC50 [1, 3]: 3160 nM
SMILES: NS(=O)(=O)c1cccc(Nc2ncc(F)c(Nc3ccc(Cc4cc[n+]([O-])cc4)cc3)n2)c1 [III-80, N2-(3-Aminosulfonylphenyl)-5-fluoro-N4-[4-(1-oxido-4-pyridylmethyl)phenyl]-2,4-pyrimidinediamine]
IC50 (Primary human T-cells; [10]): 844 nM

IC50 [1, 3]: 542 nM
SMILES: CNC(=O)COc1ccc(Nc2nc(Nc3ccc(C)c(S(N)(=O)=O)c3)ncc2F)cc1 [Compound I-145, N2-(3-Aminosulfonyl-4-methylphenyl)-5-fluoro-N4-(4-methylaminocarbonylmethoxyphenyl)-2,4-pyrimidinediamine]
IC50 (Primary human T-cells; [10]): 349 nM

IC50 [1, 6]: 82.6 nM
SMILES: CNS(=O)(=O)c1cc(Nc2ncc(F)c(Nc3ccc(OCc4ccncc4)cc3)n2)ccc1C [Compound I-195, 5-Fluoro-N2-[3-(N-methylaminosulfony)-4-methylphenyl]-5-fluoro-N4-[4-(4-pyridinyl)methyleneoxyphenyl]-2,4-pyrimidinediamine]
IC50 (Primary human T-cells; [7]): 127 nM

IC50 [1, 6]: 147 nM
SMILES: COc1cc(Nc2ncc(F)c(Nc3ccc(OC(C)(C)C#N)cc3)n2)ccc1S(N)(=O)=O [Compound I-77, N2-(4-Aminosulfonyl-3-methoxy)phenyl-N4-[4-(1-cyano-1-methyl)ethoxy]phenyl-5-fluoro-2,4-pyrimidinediamine]
IC50 (Primary human T-cells; [7]): 1620 nM

IC50 [1, 6]: 635 nM
SMILES: N#CCC(=O)Nc1ccc(Nc2nc(Nc3cccc(S(N)(=O)=O)c3)ncc2F)cc1 [Compound I-78, N2-(3-Aminosulfonylphenyl)-N4-[4-(N-cyanoacetyl)aminophneyl]-5-fluoro-2,4-pyrimidinediamine]
IC50 (Primary human T-cells; [7]): 1210 nM

IC50 [1, 4]: 136 nM
SMILES: N#Cc1cc(Nc2nc(Nc3cccc(S(N)(=O)=O)c3)ncc2F)ccc1F [VI-98, N2-(3-Aminosulfonylphenyl)-N4-(3-cyano-4-fluorophenyl)-5-fluoro-2,4-pyrimidinediamine]
IC50 (Primary human T-cells; [5]): 986 nM
